According to ChEMBL document CHEMBL4837269, “Identification of 6-Hydroxypyrimidin-4(1H)-one-3-carboxamides as Potent and Orally Active APJ Receptor Agonists” (ACS Med Chem Lett, 2021):

What was measured:
Apelin receptor [1] = biological target: T1, Apelin receptor (Homo sapiens, UniProt P35414); assay: Agonist activity at human APJ receptor expressed in HEK293T cells assessed as compound stimulated inhibition of forskolin stimulated cAMP production incubated for 30 mins by HTRF assay; format: functional, cell-based
T1 sequence (P35414 whole entry): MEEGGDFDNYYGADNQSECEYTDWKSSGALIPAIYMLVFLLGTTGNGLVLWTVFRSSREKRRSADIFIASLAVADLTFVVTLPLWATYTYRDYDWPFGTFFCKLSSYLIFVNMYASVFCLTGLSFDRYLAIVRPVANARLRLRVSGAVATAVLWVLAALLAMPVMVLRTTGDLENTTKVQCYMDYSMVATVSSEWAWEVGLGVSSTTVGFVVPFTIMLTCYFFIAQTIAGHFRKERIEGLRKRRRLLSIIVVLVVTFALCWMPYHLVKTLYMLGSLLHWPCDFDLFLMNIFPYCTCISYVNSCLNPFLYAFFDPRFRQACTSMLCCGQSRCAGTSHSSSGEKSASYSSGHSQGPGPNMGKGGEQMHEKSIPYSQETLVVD

Apelin receptor [2] = biological target: T2, Apelin receptor (Rattus norvegicus, UniProt Q9JHG3); assay: Agonist activity at rat APJ receptor expressed in HEK293T cells assessed as compound stimulated inhibition of forskolin stimulated cAMP production incubated for 30 mins by HTRF assay; format: functional, cell-based
T2 sequence (Q9JHG3 whole entry): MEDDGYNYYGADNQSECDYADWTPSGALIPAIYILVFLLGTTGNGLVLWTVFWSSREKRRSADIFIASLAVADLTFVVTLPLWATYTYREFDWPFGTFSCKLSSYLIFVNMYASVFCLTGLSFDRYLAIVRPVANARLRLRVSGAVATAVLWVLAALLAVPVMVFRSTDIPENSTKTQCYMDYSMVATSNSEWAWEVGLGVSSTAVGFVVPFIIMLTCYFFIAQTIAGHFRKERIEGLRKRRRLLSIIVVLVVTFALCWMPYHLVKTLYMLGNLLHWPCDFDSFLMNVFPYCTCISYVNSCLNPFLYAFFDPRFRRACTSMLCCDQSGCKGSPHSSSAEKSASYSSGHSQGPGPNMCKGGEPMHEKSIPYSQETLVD

[3] = Metabolic stability in human liver microsomes assessed as parent compound remaining measured after 10 mins in presence of NADPH; format: ADME, Microsome; details: for remaining at 10 min: liver microsomes, read-out: Stabilty; for percent parent compound remaining: microsomes, 10 min
[4] = Metabolic stability in rat liver microsomes assessed as parent compound remaining measured after 10 mins in presence of NADPH; format: ADME, Microsome; details: for remaining at 10 min: liver microsomes, read-out: Stabilty; for Stabilty: microsomes, 10 min
[5] = Permeability of the compound at pH 5.5 by PAMPA assay; format: ADME; details: for Papp: read-out: permeability
[6] = Permeability of the compound at pH 7.4 by PAMPA assay; format: ADME; details: for Papp: read-out: permeability
[7] = Cmax in Sprague-Dawley rat at 1 mg/kg, po via gavage measured after 48 hrs by LC/MS/MS analysis; format: ADME, organism-based; parameters: route oral, time 48 hrs, dose 1 mg/kg; details: in vivo
[8] = AUC(0 to 24 hrs) in Sprague-Dawley rat at 1 mg/kg, po via gavage measured after 48 hrs by LC/MS/MS analysis; format: ADME, organism-based; parameters: route oral, dose 1 mg/kg, time 48 hrs; details: in vivo
[9] = Half life in Sprague-Dawley rat at 1 mg/kg, po via gavage measured after 48 hrs by LC/MS/MS analysis; format: ADME, organism-based; details: in vivo
Rattus norvegicus [10] = assay: Hemodynamic activity in isoflurane-anesthetized Sprague-Dawley rat model of acute pressure-volume loop assessed as change in cardiac output at 10 microg/kg/min administered as iv infusion for 15 mins (reference value: 2.3 +/- 2.1 %); format: functional; details: dose 10 µg/kg/min, 0.25 h
Rattus norvegicus [11] = assay: Hemodynamic activity in isoflurane-anesthetized Sprague-Dawley rat model of acute pressure-volume loop assessed as change in stroke volume at 10 microg/kg/min administered as iv infusion for 15 mins (reference value: -0.6 %); format: functional; details: dose 10 µg/kg/min, 0.25 h
Rattus norvegicus [12] = assay: Hemodynamic activity in isoflurane-anesthetized Sprague-Dawley rat model of acute pressure-volume loop assessed as change in dp/dT at 10 microg/kg/min administered as iv infusion for 15 mins (reference value: 3.3 +/- […]); format: functional; details: dose 10 µg/kg/min, 0.25 h
Rattus norvegicus [13] = assay: Hemodynamic activity in isoflurane-anesthetized Sprague-Dawley rat model of acute pressure-volume loop assessed as change in heart rate at 10 microg/kg/min administered as iv infusion for 15 mins (reference value: 3 +/- 1.6 %); format: functional; details: dose 10 µg/kg/min, 0.25 h
Rattus norvegicus [14] = assay: Hemodynamic activity in isoflurane-anesthetized Sprague-Dawley rat model of acute pressure-volume loop assessed as change in blood pressure at 10 microg/kg/min administered as iv infusion for 15 mins (reference value: -0.2 %); format: functional; details: dose 10 µg/kg/min, 0.25 h
[15] = Protein binding in Sprague-Dawley rat plasma; format: ADME, cell-free; details: read-out: PPB (converted)
[16] = Free drug concentration in Sprague-Dawley rat plasma; format: ADME, cell-free

CCCCc1[nH]c(=O)c(C(=O)N(CCC)Cc2ccccc2)c(O)c1-c1c(OC)cccc1OC
EC50 (Apelin receptor [1]): 120 nM
EC50 (Apelin receptor [2]): 150 nM

CCCCc1[nH]c(=O)c(C(=O)NCc2ccccc2)c(O)c1-c1c(OC)cccc1OC
EC50 (Apelin receptor [1]): 1100 nM
EC50 (Apelin receptor [2]): 4800 nM

CCCCc1[nH]c(=O)c(C(=O)N2CC[C@H](c3ccccc3)C2)c(O)c1-c1c(OC)cccc1OC
EC50 (Apelin receptor [1]): 1 nM
EC50 (Apelin receptor [2]): 1.8 nM
remaining at 10 min [3]: 99%
remaining at 10 min [4]: 73%
Papp [5]: 84 ×10⁻⁶ cm/s
Papp [6]: 1.8 ×10⁻⁶ cm/s

CCCCc1nc(=O)c(C(=O)N2CC[C@@H](c3ccc(Cl)cn3)C2)c(O)n1-c1c(OC)cccc1OC
EC50 (Apelin receptor [1]): 0.027 nM
EC50 (Apelin receptor [2]): 0.035 nM
remaining at 10 min [3]: 100%
remaining at 10 min [4]: 43%
Cmax [7]: 3.2 µM
AUC(0-t) at 48 h [8]: 1.9 µM·h
half-life [9]: 192 min
Activity (Rattus norvegicus [10]): 11.7%
Activity (Rattus norvegicus [11]): 67%
Activity (Rattus norvegicus [12]): 9.1%
Activity (Rattus norvegicus [13]): 4.6%
Activity (Rattus norvegicus [14]): -2.8%
fraction unbound [15]: 0.022
Cp(f) [16]: 6.4 nM

CCCCc1[nH]c(=O)c(C(=O)N(C)C)c(O)c1-c1c(OC)cccc1OC
EC50 (Apelin receptor [1]): 1100 nM
EC50 (Apelin receptor [2]): 1200 nM

CCCCc1nc(=O)c(C(=O)N2CC[C@H](c3ccccc3)C2)c(O)n1-c1c(OC)cccc1OC
EC50 (Apelin receptor [2]): 0.27 nM
remaining at 10 min [3]: 85%
remaining at 10 min [4]: 25%
Papp [5]: 52.3 ×10⁻⁶ cm/s
Papp [6]: 1.2 ×10⁻⁶ cm/s

CCCCc1[nH]c(=O)c(C(=O)N(C)CCc2ccc(Cl)cc2)c(O)c1-c1c(OC)cccc1OC
EC50 (Apelin receptor [1]): 9.3 nM
EC50 (Apelin receptor [2]): 10 nM

CCOCc1[nH]c(=O)c(-c2nnc(Cc3ccc(C)cn3)o2)c(O)c1-c1c(OC)cccc1OC
EC50 (Apelin receptor [1]): 0.023 nM
EC50 (Apelin receptor [2]): 0.024 nM

CCCCc1[nH]c(=O)c(C(=O)NCC)c(O)c1-c1c(OC)cccc1OC
EC50 (Apelin receptor [1]): > 30000 nM
EC50 (Apelin receptor [2]): > 30000 nM

CCCCc1nc(=O)c(C(=O)N2CC[C@H](c3ccc(Cl)cn3)C2)c(O)n1-c1c(OC)cccc1OC
EC50 (Apelin receptor [1]): 0.032 nM
EC50 (Apelin receptor [2]): 0.063 nM
remaining at 10 min [3]: 100%
remaining at 10 min [4]: 35%

CCCCc1[nH]c(=O)c(C(=O)N2CC[C@@H](c3ccccc3)C2)c(O)c1-c1c(OC)cccc1OC
EC50 (Apelin receptor [1]): 1.8 nM
EC50 (Apelin receptor [2]): 3.1 nM
remaining at 10 min [3]: 100%
remaining at 10 min [4]: 69%
Papp [5]: 63 ×10⁻⁶ cm/s
Papp [6]: 7.3 ×10⁻⁶ cm/s

CCOCc1nc(=O)c(C(=O)N2CC[C@H](c3ccccc3)C2)c(O)n1-c1c(OC)cccc1OC
EC50 (Apelin receptor [1]): 0.44 nM
EC50 (Apelin receptor [2]): 0.61 nM
Papp [5]: 6.4 ×10⁻⁶ cm/s
Papp [6]: 0.3 ×10⁻⁶ cm/s

CCCCc1nc(=O)c(C(=O)N2CC[C@@H](c3ccccc3)C2)c(O)n1-c1c(OC)cccc1OC
EC50 (Apelin receptor [2]): 0.34 nM
remaining at 10 min [3]: 97%
remaining at 10 min [4]: 26%
Papp [5]: 32.5 ×10⁻⁶ cm/s
Papp [6]: 2.3 ×10⁻⁶ cm/s

CCCCc1nc(=O)c(C(=O)N2CCC(c3ccc(Cl)cc3)C2)c(O)n1-c1c(OC)cccc1OC (stereo in doubt; 10a)
EC50 (Apelin receptor [1]): 0.15 nM
EC50 (Apelin receptor [2]): 0.17 nM
remaining at 10 min [3]: 97%
remaining at 10 min [4]: 7%
Papp [5]: 30 ×10⁻⁶ cm/s
Papp [6]: 7.4 ×10⁻⁶ cm/s

CCCCc1nc(=O)c(C(=O)N2CCC(c3ccc(Cl)cc3)C2)c(O)n1-c1c(OC)cccc1OC (stereo in doubt; 10b)
EC50 (Apelin receptor [1]): 0.24 nM
EC50 (Apelin receptor [2]): 0.31 nM
percent parent compound remaining [3]: 90%
Stabilty [4]: 8%
permeability [5]: 380 nm/s
permeability [6]: 63 nm/s

CCCCc1nc(=O)c(C(=O)N2CCC(c3ccccn3)C2)c(O)n1-c1c(OC)cccc1OC (stereo in doubt; 11a)
EC50 (Apelin receptor [1]): 0.17 nM
EC50 (Apelin receptor [2]): 0.37 nM
remaining at 10 min [3]: 82%
remaining at 10 min [4]: 68%
Papp [5]: 4.2 ×10⁻⁶ cm/s

CCCCc1nc(=O)c(C(=O)N2CCC(c3ccccn3)C2)c(O)n1-c1c(OC)cccc1OC (stereo in doubt; 11b)
EC50 (Apelin receptor [1]): 0.12 nM
EC50 (Apelin receptor [2]): 0.15 nM
Stabilty [4]: 62%
permeability [5]: 78 nm/s
Papp [6]: 0.6 ×10⁻⁶ cm/s

CCCCc1nc(=O)c(C(=O)N2CCC(c3cccnc3)C2)c(O)n1-c1c(OC)cccc1OC (stereo in doubt; 12a)
EC50 (Apelin receptor [1]): 0.29 nM
EC50 (Apelin receptor [2]): 0.33 nM
remaining at 10 min [3]: 82%
remaining at 10 min [4]: 65%
Papp [5]: 2.3 ×10⁻⁶ cm/s

CCCCc1nc(=O)c(C(=O)N2CCC(c3cccnc3)C2)c(O)n1-c1c(OC)cccc1OC (stereo in doubt; 12b)
EC50 (Apelin receptor [1]): 0.3 nM
EC50 (Apelin receptor [2]): 0.4 nM
percent parent compound remaining [3]: 89%
Stabilty [4]: 70%
permeability [5]: 21 nm/s
Papp [6]: 0.1 ×10⁻⁶ cm/s

CCCCc1nc(=O)c(C(=O)N2CCC(c3ccncc3)C2)c(O)n1-c1c(OC)cccc1OC (stereo in doubt; 13a)
EC50 (Apelin receptor [1]): 1.5 nM
EC50 (Apelin receptor [2]): 2.1 nM
remaining at 10 min [3]: 93%
remaining at 10 min [4]: 83%
permeability [5]: 9 nm/s
Papp [6]: 0.3 ×10⁻⁶ cm/s

CCCCc1nc(=O)c(C(=O)N2CCC(c3ccncc3)C2)c(O)n1-c1c(OC)cccc1OC (stereo in doubt; 13b)
EC50 (Apelin receptor [1]): 2.7 nM
EC50 (Apelin receptor [2]): 4 nM
percent parent compound remaining [3]: 90%
Stabilty [4]: 80%
permeability [5]: 19 nm/s
permeability [6]: 5 nm/s
